According to ChEMBL document CHEMBL1201862, “PubChem BioAssay data set” (2004):
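A five-concentration, 48-hour dose response in 96-well plates underlies each endpoint, interpolated linearly between surrounding concentrations. Here, GI50 denotes the concentration required for 50% inhibition of growth.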 Activity calls are given as the source filed them. Rule as the data show it: active = GI50 up to about 1.1 µM and inactive = higher.

Columns and labels:
Assay in all cases: growth of human tumour cells (NCI), 48 h
SR = tested on: SR
K562 = tested on: K562
A549 = tested on: A549
PC-3 = tested on: PC-3
SW-620 = tested on: SW-620
HL-60 = tested on: HL-60
OVCAR-4 = tested on: OVCAR-4
UACC-62 = tested on: UACC-62
HOP-92 = tested on: HOP-92
MDA-MB-435 = tested on: MDA-MB-435
HT-29 = tested on: HT-29
SK-OV-3 = tested on: SK-OV-3
NCI-H226 = tested on: NCI-H226
U-251 = tested on: U-251
MDA-MB-231 = tested on: MDA-MB-231
SNB-19 = tested on: SNB-19
IGROV-1 = tested on: IGROV-1
MCF7 = tested on: MCF7
M14 = tested on: M14
COLO 205 = tested on: COLO 205

Measured: GI50

O=C(O)CCC(NC(=O)c1ccc(Nc2cnc3ccc(C(F)(F)F)cc3n2)cc1)C(=O)O (stereo not given)
inactive: SR > 100 µM | K562 > 100 µM | A549 > 100 µM | PC-3 > 100 µM | SW-620 > 100 µM | HL-60 > 100 µM | OVCAR-4 > 100 µM | UACC-62 > 100 µM | HOP-92 > 100 µM | MDA-MB-435 > 100 µM | HT-29 > 100 µM | SK-OV-3 > 100 µM | NCI-H226 > 100 µM | U-251 > 100 µM | MDA-MB-231 > 100 µM | SNB-19 > 100 µM | IGROV-1 > 100 µM | MCF7 > 100 µM | M14 > 100 µM | COLO 205 > 100 µM

COc1ccccc1NC(=S)N/N=C/c1cccc(C)n1
inactive: SR 2.43 µM | K562 1.27 µM | A549 4.16 µM | PC-3 4.5 µM | SW-620 3.14 µM | HL-60 3.15 µM | OVCAR-4 14.2 µM | UACC-62 3.67 µM | HOP-92 8.09 µM | MDA-MB-435 5.16 µM | HT-29 4.17 µM | SK-OV-3 6.55 µM | NCI-H226 5.82 µM | U-251 4.26 µM | MDA-MB-231 3.52 µM | SNB-19 10.9 µM | IGROV-1 4.06 µM | MCF7 3.78 µM | M14 2.18 µM | COLO 205 1.68 µM
